Molecules are shown by their SMILES. Positions of bridges follow the written chain, without caps; N, C: chain ends. Residues, ends and D or L forms follow the SMILES beside them.

The subject of one series is trypsin. The series can be described thus: Resistance to trypsin digestion. Format: in vitro ADME. As to conditions: for resistance to trypsin digestion: FIG. 4. On the procedure: Approximately 20% of VEGF_CKP9.54.90 was cleaved at Arg13 within loop 2 after 24 h incubation with trypsin at 37° C.
Series [1] deals with choroidal neovascularization in rat eyes. The series can be described thus: VEGF-A driven model of laser-induced choroidal neovascularization. Format: in vivo. The note with it: intravitreal, 14-day period, vs control eyes, FIG. 12. The method, then:
Next, VEGF-A binding variants VEGF_CKP9.54.90, VEGF_CKP9.63.12, and VEGF_CKP9.63.44 were assessed for their in vivo efficacy in a VEGF-A driven model of choroidal neovascularization. Laser-burnt spots were created in rat eyes and the formation of new vessels was monitored after a 14-day period in the presence and absence of peptide that was administered intravitreally at different intervals.

Series [2] can be described thus: Oxidative stability (AAPH, LC-MS). Format: physicochemical. As to conditions: 16 hours at 40° C. On the procedure:
The oxidative stability of various CKP variants was assayed as follows: 5 μL of 11 mM AAPH (Calbiochem catalog no. 100110) in water was added to 50 uL of variant peptide sample (prepared as 1 mg/mL peptide in 20 mM histidine acetate pH 5.5) and the mix was incubated for 16 hours at 40° C. At the end of the incubation, the sample was quenched by addition of 27.5 uL of 40 mM methionine, followed by addition of 160 ul of 20 mM Histidine acetate, 100 mM sucrose at pH 5.5 to dilute the samples. The reactions were analyzed by LC-MS.

In another series the target is T1, PIGF-2 and Flt-1 (Homo sapiens, UniProt P49763).
T1 construct: purchased R &D Systems (Minneapolis, Minn.)
Kind of series: Competition ELISA, growth factor/receptor interaction. Format: binding. The note with it: FIG. 2A. On the procedure: (§1) Binding specificity of each peptide was established by competition ELISA. […] After blocking with block buffer (PBS with 0.5% BSA and 0.05% TWEEN®20) for 2 hours at room temperature, the receptor-Fc fusions or biotinylated receptors were serially diluted using assay buffer (PBS with 0.5% BSA and 0.05% TWEEN®20) and incubated for 1 hour at room temperature. […] Competition ELISA was conducted in an identical fashion as described above except after blocking, a mixture of serially diluted peptide containing a constant concentration of receptor-Fc fusion or biotinylated receptor (concentration of receptor was set to EC60) was added and incubated for 1 hour. All recombinant human proteins and antibodies were purchased from R &D Systems (Minneapolis, Minn.).
On the technique in general: An ELISA detects its analyte on a solid surface through an enzyme-linked reagent.

In a further series the target is T2, IGF and IGFR (Homo sapiens, UniProt P05019).
T2 construct: purchased R &D Systems (Minneapolis, Minn.)
The series is described as above. Format: binding. As to conditions: FIG. 2B. The method, then: as §1

The next series addresses T3, VEGF-A and Flt-1 (Homo sapiens, UniProt P15692).
T3 construct: VEGF-A(8-109) and Flt-1; purchased R &D Systems (Minneapolis, Minn.)
Described as above. Format: binding. The note with it: FIGS. 2A and 2B. On the procedure:
as §1

Another series addresses T4, VEGF-C and Flt-4 (Homo sapiens, UniProt P49767).
T4 construct: purchased R &D Systems (Minneapolis, Minn.)
Described as above. The format is binding. The note with it: FIG. 2A. The method, then: as §1

A further series addresses T5, NGF and NGFR (Homo sapiens, UniProt P01138).
T5 construct: purchased R &D Systems (Minneapolis, Minn.)
The description is as above. The note with it: FIG. 2B. Format: binding. The method, then: as §1

The target in the next series is T6, EGF and EGFR (Homo sapiens, UniProt P01133).
T6 construct: purchased R &D Systems (Minneapolis, Minn.)
The series is described as above. The format is binding. The note with it: FIG. 2B. The method, then:
as §1

A further series deals with T7, PDGF and PDGFR (Homo sapiens, UniProt P01127).
T7 construct: purchased R &D Systems (Minneapolis, Minn.)
The description is as above. Format: binding. As to conditions: FIG. 2B. The method, then: as §1

The target in the next series is T8, VEGF-D and Flt-4 (Homo sapiens, UniProt O43915).
T8 construct: purchased R &D Systems (Minneapolis, Minn.)
The series is described as above. As to conditions: FIG. 2A. Format: binding. On the procedure: as §1

A further series has as its target T9, VEGF-B and Flt-1 (Homo sapiens, UniProt P49765).
T9 construct: purchased R &D Systems (Minneapolis, Minn.)
The series is described as above. The format is binding. The note with it: FIG. 2A. The method, then:
as §1

T1 sequence (P49763 19-170 isoform P49763-3 limits assumed): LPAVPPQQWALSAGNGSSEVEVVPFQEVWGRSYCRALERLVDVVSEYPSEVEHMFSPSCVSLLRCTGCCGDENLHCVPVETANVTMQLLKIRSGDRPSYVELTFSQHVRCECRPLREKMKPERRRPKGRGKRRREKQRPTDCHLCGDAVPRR
T3 sequence (P15692 214-315): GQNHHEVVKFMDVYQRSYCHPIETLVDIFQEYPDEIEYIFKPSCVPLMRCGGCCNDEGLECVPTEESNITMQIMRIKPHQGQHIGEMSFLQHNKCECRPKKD
T4 sequence (P49767 112-227 limits assumed): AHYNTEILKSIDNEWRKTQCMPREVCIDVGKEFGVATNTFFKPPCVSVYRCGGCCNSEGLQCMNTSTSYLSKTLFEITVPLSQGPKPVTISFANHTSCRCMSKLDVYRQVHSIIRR
T9 sequence (P49765 22-136 limits assumed): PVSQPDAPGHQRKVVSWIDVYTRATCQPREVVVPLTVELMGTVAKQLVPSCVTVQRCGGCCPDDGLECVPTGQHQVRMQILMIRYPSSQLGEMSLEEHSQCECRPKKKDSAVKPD
T8 sequence (O43915 89-205 limits assumed): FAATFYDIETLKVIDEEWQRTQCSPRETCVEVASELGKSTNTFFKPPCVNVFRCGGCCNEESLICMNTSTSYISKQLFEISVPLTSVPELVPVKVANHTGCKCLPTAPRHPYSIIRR
T2 sequence (P05019 49-118 limits assumed): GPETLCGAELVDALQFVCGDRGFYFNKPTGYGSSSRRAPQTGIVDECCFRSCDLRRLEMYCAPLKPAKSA
T7 sequence (P01127 82-190 limits assumed): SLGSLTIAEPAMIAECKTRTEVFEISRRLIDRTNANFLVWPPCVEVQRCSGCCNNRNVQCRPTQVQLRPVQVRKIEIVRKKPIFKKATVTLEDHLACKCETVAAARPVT
T6 sequence (P01133 971-1023 limits assumed): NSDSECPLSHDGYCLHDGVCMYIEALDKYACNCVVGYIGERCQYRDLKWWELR
T5 sequence (P01138 122-241): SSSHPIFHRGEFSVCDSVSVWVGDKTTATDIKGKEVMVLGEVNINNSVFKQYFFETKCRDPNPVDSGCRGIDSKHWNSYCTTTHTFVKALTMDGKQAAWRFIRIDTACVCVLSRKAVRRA

As for `CC[C@H](C)[C@@H]1NC(=O)[C@H](CC(=O)O)NC(=O)[C@@H]2CCCN2C(=O)CNC(=O)[C@@H]2CSSC[C@H](NC(=O)[C@H](CC(=O)O)NC1=O)C(=O)N[C@@H](CC(C)C)C(=O)N[C@@H](C)C(=O)NCC(=O)N[C@H](C(=O)N[C@H](C(=O)N[C@H]1CSSC[C@@H](C(=O)NCC(=O)O)NC(=O)[C@H](CO)NC(=O)[C@H](CC(N)=O)NC(=O)[C@H](Cc3ccc(O)cc3)NC(=O)[C@H](Cc3c[nH]c4ccccc34)NC(=O)[C@H](Cc3c[nH]cn3)NC1=O)C(C)C)CSSC[C@H](NC(=O)CN)C(=O)N[C@@H](CC(=O)O)C(=O)N[C@@H](C(C)C)C(=O)N[C@@H](CCSC)C(=O)N[C@@H](CCC(N)=O)C(=O)N1CCC[C@H]1C(=O)N[C@@H](Cc1ccc(O)cc1)C(=O)N[C@@H](Cc1c[nH]c3ccccc13)C(=O)NCC(=O)N2` [VEGF_CKP9.63.12] (H-GCDVMQPYWGCGPDIDCLAGCVCHWYNSCG-OH; disulfide 2-21, 11-17, 23-29 (inferred); N-terminus and C-terminus assumed), the “resistance to trypsin digestion” value in the series on trypsin is “maintain a degree of resistance”.

Turning to `CC[C@H](C)[C@@H]1NC(=O)[C@H](CC(N)=O)NC(=O)[C@@H](NC(=O)CN)CSSC[C@@H](C(=O)N[C@H](C(=O)N[C@H]2CSSC[C@@H](C(=O)NCC(=O)O)NC(=O)[C@H](CO)NC(=O)[C@H](CCC(N)=O)NC(=O)[C@H](Cc3ccc(O)cc3)NC(=O)[C@H](Cc3ccc(O)cc3)NC(=O)[C@H](CCC(N)=O)NC2=O)C(C)C)NC(=O)CNC(=O)[C@H](C)NC(=O)[C@H](CC(C)C)NC(=O)[C@@H]2CSSC[C@H](NC(=O)CNC(=O)[C@H](Cc3c[nH]c4ccccc34)NC(=O)[C@H](Cc3ccccc3)NC(=O)[C@@H]3CCCN3C(=O)[C@H](CC(C)C)NC(=O)[C@H](CCSC)NC1=O)C(=O)NCC(=O)N[C@@H](CCCNC(=N)N)C(=O)N[C@@H](CC(=O)O)C(=O)N[C@@H](Cc1ccccc1)C(=O)N[C@@H](CCC(=O)O)C(=O)N2` [VEGF_CKP9.54.90] (H-GCNIMLPFWGCGRDFECLAGCVCQYYQSCG-OH; disulfide 2-21, 11-17, 23-29; N-terminus and C-terminus assumed), in the series with trypsin (24 h incubation with trypsin at 37° C., read-out: fraction cleaved at Arg13 within loop 2), the metabolised at 24 h is about 20%. Further, the “resistance to trypsin digestion” value in the series with trypsin is given as “maintain a degree of resistance”. Also, the “inhibition of laser-induced choroidal neovascularization (neovascular area)” value in [1] is on record as “effective inhibition”. Moreover, the “oxidation at Met5 within loop 1” value in series [2] is about 30%. Also, the “disruption of the interaction between PIGF-2 and Flt-1” value at PIGF-2 and Flt-1 was “not disrupt”. Also, at IGF and IGFR, the “disruption of the interaction between IGF and IGFR” value is “not disrupt”. Moreover, at VEGF-A and Flt-1, the “disruption of the interaction between VEGF-A and Flt-1” value is given as “disrupts”. In addition, the “disruption of the interaction between VEGF-C and Flt-4” value at VEGF-C and Flt-4 was “not disrupt”. The “disruption of the interaction between NGF and NGFR” value on NGF and NGFR is “not disrupt”. Besides, the “disruption of the interaction between EGF and EGFR” value on EGF and EGFR is reported as “not disrupt”. Further, the “disruption of the interaction between PDGF and PDGFR” value at PDGF and PDGFR is “not disrupt”. In addition, the “disruption of the interaction between VEGF-D and Flt-4” value at VEGF-D and Flt-4 was “not disrupt”. Further, the “disruption of the interaction between VEGF-B and Flt-1” value at VEGF-B and Flt-1 was “not disrupt”.
